The test system of one experiment is a large number of fungi. The experiment is described as follows: conventional antifungal screening test, in vitro, Sabourand broth medium. In kind it is cell-based.
A further experiment relates to six strains of Candida. The experiment is described as follows: in vitro antifungal activity (MIC) in Eagles medium. In kind it is cell-based. The following applies: for MIC: six strains of Candida.
The test system of the next experiment is Candida albicans. In words: mouse Candida albicans oral infection model. The experiment is classed as in vivo. The following applies: compared to ketoconazole.

Converted amounts (≈) assume the structure as drawn. Like-named read-outs stand apart in the source and are kept apart here. Some results are limits rather than exact numbers.

For the compound `Fc1ccc(C(F)(Cn2cncn2)Cn2cncn2)c(F)c1` [compound of this invention, 1,3-Bis(1H-1,2,4-triazol-1-yl)-2-(2,4-difluorophenyl)-2-fluoro-propane], the “in vitro activity against a large number of fungi” value in the experiment on a large number of fungi is listed as “negligible in vitro activity”. Moreover, the “in vitro activity against six strains of Candida compared to ketoconazole” value with six strains of Candida is “significantly lower in vitro activity”. Also, the MIC with six strains of Candida (after 48 hours, read-out: mean Minimum Inhibitory Concentration (MIC)) was 4 µg/mL (≈ 13 µM). The “preventive dosage required for survival of 100% of the test animals” value with Candida albicans is on record as “lower than that required for ketoconazole”.

With `CC(=O)N1CCN(c2ccc(OCC3COC(Cn4ccnc4)(c4ccc(Cl)cc4Cl)O3)cc2)CC1` (stereo not drawn) [ketoconazole, reference compound], the “in vitro activity against a large number of fungi” value with a large number of fungi is “negligible in vitro activity”. In addition, the MIC with six strains of Candida (read-out: MIC) is under 0.031 µg/mL.
